According to US20250304537A1 (Repare Therapeutics Inc., priority 2022, published 2025):
Where two headings read alike, the source gives them in different places.

Test system: PKMYT1 (CDK1 pThr14) in FUOV1 cells
Test: PKMYT1 cell-based activity assay, CDK1 pThr14 AlphaLISA in FUOV1 cells
Conditions: read-out: FUOV-1 CDK1 pThr14 IC50
How it was run: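 IC50 was derived from AlphaLISA signal (excitation 680 nm, emission 615 nm) for phospho-Thr14 CDK1 in lysates. The detection antibodies were rabbit anti-pThr14 and mouse anti-total CDK1, each at 5 nM. FUOV1 ovarian cells were exposed to compound for 2 hours before lysis.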

SMILES	IC50 (2 h, 2 h compound incubation) [nM]	further results
Cc1ccc2[nH]ncc2c1-c1nc(-c2cccnc2Nc2cccnc2)nc(C(N)=O)c1N [Compound 768]	–	IC50 (2 h compound incubation): 122 nM
Cc1ccccc1Nc1ncccc1-c1nc(C(N)=O)c(N)c(-c2c(C)ccc3[nH]ncc23)n1 [Compound 657]	70	–
Cc1cc(F)c2[nH]ncc2c1-c1nc(-c2ccc(F)nc2Nc2ncccc2F)nc(C(N)=O)c1N [Compound 864]	–	IC50 (2 h, 2 hours with compound): 9 nM
Cc1ccc(-c2nc(C(N)=O)c(N)c(-c3c(C)ccc4[nH]ncc34)n2)c(Nc2nc(C)cnc2C)n1 [Compound 689]	6	–
Cc1ccc2[nH]ncc2c1-c1nc(-c2cccnc2Nc2ncccc2F)cc(C(N)=O)c1N [Compound 846]	–	IC50 (2 h, 2 hours with compound): 12 nM
Cc1ccc2[nH]ncc2c1-c1nc(-c2cccnc2Nc2nc(F)ccc2F)nc(C(N)=O)c1F [Compound 500, 2-(2-((3,6-difluoropyridin-2-yl)amino)pyridin-3-yl)-5-fluoro-6-(5-methyl-1H-indazol-4-yl)pyrimidine-4-carboxamide]	437	–
Cc1ccc2[nH]ncc2c1-c1nc(-c2cc(F)cnc2N[C@H]2C[C@H]3CC[C@@H]2O3)nc(C(N)=O)c1N [Compound 891]	–	IC50 (2 h, 2 hours with compound): 22 nM
Cc1ccc(F)c(Nc2ncccc2-c2nc(C(N)=O)c(N)c(-c3c(C)c(F)cc4[nH]ncc34)n2)n1 [Compound 749]	6	–
Cc1ccc2[nH]ncc2c1-c1nc(-c2ccc(C(F)(F)F)nc2Nc2nccnc2Cl)nc(C(N)=O)c1N [Compound 771]	96	–
COC(COc1nccc(-c2cc(-c3c(C)ccc4[nH]ncc34)c(N)c(C(N)=O)n2)n1)c1ccccc1 (centres unmarked) [Compound 238]	–	IC50 (2 h, 2 h incubation): 92 nM
Cc1ccc2[nH]ncc2c1-c1nc(-c2cc(F)c(C#N)cc2Nc2ncccn2)nc(C(N)=O)c1N [Compound 761]	75	–
[2H]C([2H])([2H])c1ccc2[nH]ncc2c1-c1nc(-c2ccc(F)nc2Nc2ncccc2F)nc(C(N)=O)c1N [Compound 930]	–	IC50 (2 h, 2 hours with compound): 5 nM
Cc1ccc2[nH]ncc2c1-c1nc(-c2ccc(Cl)cc2Nc2ncccn2)nc(C(N)=O)c1N [Compound 654]	77	–
Cc1ccc2[nH]ncc2c1-c1nc(-c2cnccc2NCC(F)(F)F)nc(C(N)=O)c1N [Compound 520, 5-amino-6-(5-methyl-1H-indazol-4-yl)-2-(4-((2,2,2-trifluoroethyl)amino)pyridin-3-yl)pyrimidine-4-carboxamide]	27	–
[2H]C([2H])([2H])c1ccc2[nH]ncc2c1-c1nc(-c2cccnc2NC23CC(C(=O)OC)(C2)C3)nc(C(N)=O)c1N [Compound 961, methyl 3-((3-(5-amino-4-carbamoyl-6-(5-(methyl-d3)-1H-indazol-4-yl)pyrimidin-2-yl)pyridin-2-yl)amino)bicyclo[1.1.1]pentane-1-carboxylate]	–	IC50 (2 h, 2 hours with compound): 223 nM
Cc1cc(F)c2[nH]ncc2c1-c1nc(-c2cccnc2NCC(F)(F)F)nc(C(N)=O)c1N [Compound 872]	–	IC50 (2 h, 2 hours with compound): 147 nM
Cc1ccc2[nH]ncc2c1-c1nc(-c2ccc(C(F)(F)F)nc2Nc2ncccn2)nc(C(N)=O)c1N [Compound 760]	201	–
Cc1ccc(-c2nc(C(N)=O)c(N)c(-c3c(C)ccc4[nH]ncc34)n2)c(Nc2ncccc2F)n1 [Compound 911]	–	IC50 (2 h, 2 hours with compound): 1 nM
Cc1ccc2[nH]ncc2c1-c1nc(-c2ccc(F)cc2NC2CCOCC2)nc(C(N)=O)c1N [Compound 857]	–	IC50 (2 h, 2 hours with compound): 75 nM

SMILES	IC50 (2 h, 2 h compound incubation) [nM]	further results
Cc1cc(F)c2[nH]ncc2c1-c1nc(-c2cc(F)cnc2NCC(C)(C)C#N)nc(C(N)=O)c1N [Compound 874]	–	IC50 (2 h, 2 hours with compound): 121 nM
Cc1ccc2[nH]ncc2c1-c1nc(-c2cccnc2Nc2ccncc2)nc(C(N)=O)c1N [Compound 562]	24	–
Cc1ccc(-c2nc(C(N)=O)c(N)c(-c3c(C)ccc4[nH]ncc34)n2)c(Nc2nnccc2C)n1 [Compound 628]	41	–
Cc1c(F)cc2[nH]ncc2c1-c1nc(-c2cc(F)cnc2N[C@H]2CCOC2)nc(C(N)=O)c1N [Compound 847]	–	IC50 (2 h, 2 hours with compound): 22 nM
Cc1ccc2[nH]ncc2c1-c1nc(-c2cc(Cl)ccc2Nc2ncccn2)nc(C(N)=O)c1N [Compound 637]	241	–
Cc1ccc2[nH]ncc2c1-c1nc(-c2ccc(F)nc2Nc2nccnc2Cl)nc(C(N)=O)c1N [Compound 924]	–	IC50 (2 h, 2 hours with compound): 15 nM
Cc1ccc2[nH]ncc2c1-c1nc(-c2ccc(F)nc2NC2CS(=O)(=O)C2)nc(C(N)=O)c1N [Compound 819]	–	IC50 (2 h, 2 hours with compound): 23 nM
Cc1nc(F)cc(Nc2cc(F)ccc2-c2nc(C(N)=O)c(N)c(-c3c(C)ccc4[nH]ncc34)n2)n1 [Compound 568]	15	–
Cc1ccc(O)c(C)c1-c1nc(-c2cc(F)cnc2NCC(F)F)nc(C(N)=O)c1N [Compound 700, 5-amino-2-(2-((2,2-difluoroethyl)amino)-5-fluoropyridin-3-yl)-6-(3-hydroxy-2,6-dimethylphenyl)pyrimidine-4-carboxamide]	9	–
Cc1cc(Nc2cc(F)ccc2-c2nc(C(N)=O)c(N)c(-c3c(C)ccc4[nH]ncc34)n2)cc(C#N)n1 [Compound 586]	75	–
Cc1ccc2[nH]ncc2c1-c1nc(-c2ccc(F)nc2Nc2ncccc2F)nc(C(N)=O)c1N [Compound 929]	–	IC50 (2 h, 2 hours with compound): 7 nM
Cc1cc(F)c2[nH]ncc2c1-c1nc(-c2cc(F)ccc2Nc2ncc(F)cn2)nc(C(N)=O)c1N [Compound 677]	451	–
Cc1ccc2[nH]ncc2c1-c1cc2c(oc3ccc(N[C@H]4CCOC4)nc32)c(C(N)=O)c1N [Compound 668]	94	–
Cn1cc(-c2nc(C(N)=O)c(N)c(-c3c(Cl)ccc4[nH]ncc34)n2)c(NC2CCOCC2)n1 [Compound 915]	–	IC50 (2 h, 2 hours with compound): 164 nM
NC(=O)c1nc(-c2ccccc2Nc2ncccn2)nc(-c2c(Cl)ccc3[nH]ncc23)c1N [Compound 948]	–	IC50 (2 h, 2 hours with compound): 44 nM
[2H]C([2H])([2H])c1ccc2[nH]ncc2c1-c1nc(-c2ccc(C3CC3)nc2Nc2ncccc2F)nc(C(N)=O)c1N [Compound 47]	–	IC50 (2 h, 2 h incubation): 13 nM
Cc1ccc(F)c(Nc2ncccc2-c2nc(C(N)=O)c(N)c(-c3c(Cl)ccc4[nH]ncc34)n2)n1 [Compound 798]	–	IC50 (2 h, 2 hours with compound): 5 nM
Cc1cc(Nc2cc(F)ccc2-c2nc(C(N)=O)c(N)c(-c3c(C)ccc4[nH]ncc34)n2)nc(C)n1 [Compound 578]	150	–

Second part, led by results:

IC50 (2 h, 2 h compound incubation) [nM]	SMILES	further results
9	Cc1ccc2[nH]ncc2c1-c1nc(-c2ccc(C#N)cc2Nc2ncccc2F)nc(C(N)=O)c1N [Compound 739]	–
51	Cc1ccc2[nH]ncc2c1-c1nc(-c2cc(F)ccc2Nc2cnccn2)nc(C(N)=O)c1N [Compound 490]	–
383	Cc1ccc2[nH]ncc2c1-c1nc(-c2cccnc2NCC2(C)COC2)nc(C(N)=O)c1N [Compound 661]	–
216	Cc1ccc2[nH]ncc2c1-c1nc(-c2cccnc2Nc2cncnc2C)nc(C(N)=O)c1N [Compound 717]	–
11	Cc1ccc2[nH]ncc2c1-c1nc(-c2ccc(C#N)nc2Nc2ncccc2F)nc(C(N)=O)c1N [Compound 746]	–
232	Cc1ccc2[nH]ncc2c1-c1nc(-c2cc(F)cnc2N[C@H]2CC[C@](C)(O)CC2)nc(C(N)=O)c1N [Compound 722]	–
12	COc1ncc(F)c(Nc2cc(F)ccc2-c2nc(C(N)=O)c(N)c(-c3c(C)ccc4[nH]ncc34)n2)n1 [Compound 627]	–
44	Cc1ccc2[nH]ncc2c1-c1nc(-c2cccnc2N[C@H]2CC[C@@H](O)C2)nc(C(N)=O)c1N [Compound 784]	–
2	Cc1ccc2[nH]ncc2c1-c1nc(-c2cccnc2Nc2nc(F)ccc2Cl)nc(C(N)=O)c1N [Compound 752]	–
18	Cc1ccc2[nH]ncc2c1-c1nc(-c2cccnc2NCC(F)(F)F)nc(C(N)=O)c1N [Compound 518, 5-amino-6-(5-methyl-1H-indazol-4-yl)-2-(2-((2,2,2-trifluoroethyl)amino)pyridin-3-yl)pyrimidine-4-carboxamide]	–
22	Cc1ccc2[nH]ncc2c1-c1nc(-c2cccnc2N[C@H]2CC[C@H](O)C2)nc(C(N)=O)c1N [Compound 785]	–
57	Cc1ccc2[nH]ncc2c1-c1nc(-c2cccnc2Nc2ncccc2C2CC2)nc(C(N)=O)c1N [Compound 729]	–
14	Cc1ccc2[nH]ncc2c1-c1nc(-c2cc(F)cnc2NC2CC2)nc(C(N)=O)c1N [Compound 680]	–
20	Cc1ccc2[nH]ncc2c1-c1nc(-c2ccc(F)cc2Nc2nnccc2C#N)nc(C(N)=O)c1N [Compound 539]	–
12	Cc1ccc2[nH]ncc2c1-c1nc(-c2cccnc2N[C@H]2CCCOC2)nc(C(N)=O)c1N [Compound 546]	–
251	Cc1ccc2[nH]ncc2c1-c1nc(-c2cc(F)c(F)cc2NC2CCS(=O)(=O)CC2)nc(C(N)=O)c1N [Compound 529]	–
269	Cc1cnc(Nc2cc(F)ccc2-c2nc(C(N)=O)c(N)c(-c3c(C)ccc4[nH]ncc34)n2)nc1 [Compound 523]	–
163	Cc1ccc2[nH]ncc2c1-c1nc(-c2cc(F)ccc2Nc2ncc(F)cn2)nc(C(N)=O)c1N [Compound 492]	–
230	Cc1ccc2[nH]ncc2c1-c1nc(-c2cccc(F)c2Nc2ncccn2)nc(C(N)=O)c1N [Compound 769]	–
8	Cc1cnc(Cl)c(Nc2ncccc2-c2nc(C(N)=O)c(N)c(-c3c(C)ccc4[nH]ncc34)n2)n1 [Compound 744]	–
13	Cc1ccc2[nH]ncc2c1-c1nc(-c2ccc(F)cc2Nc2nncs2)nc(C(N)=O)c1N [Compound 579]	–
59	Cc1ccc2[nH]ncc2c1-c1nc(-c2cc(F)ccc2Nc2cccnc2)nc(C(N)=O)c1N [Compound 519, 5-amino-2-(5-fluoro-2-(pyridin-3-ylamino)phenyl)-6-(5-methyl-1H-indazol-4-yl)pyrimidine-4-carboxamide]	–
172	Cc1cnc(Nc2cc(F)ccc2-c2nc(C(N)=O)c(N)c(-c3c(C)ccc4[nH]ncc34)n2)s1 [Compound 587]	–
41	Cc1ccc2[nH]ncc2c1-c1nc(-c2ccc(F)cc2Nc2cncnc2C)nc(C(N)=O)c1N [Compound 695]	–
83	Cc1ccc2[nH]ncc2c1-c1nc(-c2cccnc2NCC(C)(C)O)nc(C(N)=O)c1N [Compound 682]	–
